PubChem BioAssay (NCI)
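Each compound was tested at five concentrations against cells in 96-well plates for 48 hours. At the GI50, growth is halved. At the TGI there is no net growth.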

Experiments:
Test in all cases: NCI-60 cell line screen, 48 h
OVCAR-8 ovarian = tested on: OVCAR-8 ovarian
MDA-MB-231 breast = tested on: MDA-MB-231 breast
NCI/ADR-RES ovarian = tested on: NCI/ADR-RES ovarian
HS 578T breast = tested on: HS 578T breast
RXF 393 renal = tested on: RXF 393 renal
OVCAR-5 ovarian = tested on: OVCAR-5 ovarian
LOX IMVI melanoma = tested on: LOX IMVI melanoma
MDA-MB-435 = tested on: MDA-MB-435
NCI-H460 lung = tested on: NCI-H460 lung
TK-10 renal = tested on: TK-10 renal
HCT-15 colon = tested on: HCT-15 colon
SW-620 colon = tested on: SW-620 colon
HOP-62 NSCLC = tested on: HOP-62 NSCLC
SK-MEL-5 melanoma = tested on: SK-MEL-5 melanoma
UACC-62 melanoma = tested on: UACC-62 melanoma
SF-295 CNS = tested on: SF-295 CNS
OVCAR-4 ovarian = tested on: OVCAR-4 ovarian
NCI-H522 lung = tested on: NCI-H522 lung
HL-60(TB) leukemia = tested on: HL-60(TB) leukemia
UO-31 renal = tested on: UO-31 renal
SNB-75 CNS = tested on: SNB-75 CNS
UACC-257 melanoma = tested on: UACC-257 melanoma
OVCAR-3 ovarian = tested on: OVCAR-3 ovarian
HCC-2998 colon = tested on: HCC-2998 colon
ACHN renal = tested on: ACHN renal
MCF7 breast = tested on: MCF7 breast
A549 NSCLC = tested on: A549 NSCLC
SNB-19 CNS = tested on: SNB-19 CNS
SK-MEL-28 melanoma = tested on: SK-MEL-28 melanoma
T-47D breast = tested on: T-47D breast
NCI-H23 lung = tested on: NCI-H23 lung
CAKI-1 renal = tested on: CAKI-1 renal
CCRF-CEM leukemia = tested on: CCRF-CEM leukemia
IGROV1 ovarian = tested on: IGROV1 ovarian
RPMI-8226 leukemia = tested on: RPMI-8226 leukemia
SK-MEL-2 melanoma = tested on: SK-MEL-2 melanoma
DU-145 prostate = tested on: DU-145 prostate
SR leukemia = tested on: SR leukemia
COLO 205 colon = tested on: COLO 205 colon
SF-268 CNS = tested on: SF-268 CNS
SN12C renal = tested on: SN12C renal
U251 CNS = tested on: U251 CNS
HCT-116 colon = tested on: HCT-116 colon
MALME-3M melanoma = tested on: MALME-3M melanoma
SF-539 CNS = tested on: SF-539 CNS
K-562 leukemia = tested on: K-562 leukemia
A498 renal = tested on: A498 renal
HOP-92 NSCLC = tested on: HOP-92 NSCLC
HT29 colon = tested on: HT29 colon
PC-3 prostate = tested on: PC-3 prostate
EKVX NSCLC = tested on: EKVX NSCLC
NCI-H226 lung = tested on: NCI-H226 lung
M14 melanoma = tested on: M14 melanoma
KM12 colon = tested on: KM12 colon
SK-OV-3 ovarian = tested on: SK-OV-3 ovarian

COc1ccc(-c2nn(-c3ccc(NC(=O)Nc4cc(C(F)(F)F)cc(C(F)(F)F)c4)cc3)cc2-c2ccncc2)cc1Cl
GI50 (OVCAR-8 ovarian): 3.27 µM | TGI (OVCAR-8 ovarian): > 100 µM | GI50 (MDA-MB-231 breast): 1.81 µM | TGI (MDA-MB-231 breast): 4.44 µM | GI50 (NCI/ADR-RES ovarian): 2.91 µM | TGI (NCI/ADR-RES ovarian): > 100 µM | GI50 (HS 578T breast): 1.53 µM | TGI (HS 578T breast): 6.76 µM | GI50 (RXF 393 renal): 1.69 µM | TGI (RXF 393 renal): 3.87 µM | GI50 (OVCAR-5 ovarian): 2.64 µM | TGI (OVCAR-5 ovarian): 14.7 µM | GI50 (LOX IMVI melanoma): 3.31 µM | TGI (LOX IMVI melanoma): > 100 µM | GI50 (MDA-MB-435): 3.03 µM | TGI (MDA-MB-435): > 100 µM | GI50 (NCI-H460 lung): 1.91 µM | TGI (NCI-H460 lung): 5.95 µM | GI50 (TK-10 renal): 1.85 µM | TGI (TK-10 renal): 7.25 µM | GI50 (HCT-15 colon): 2.88 µM | TGI (HCT-15 colon): > 100 µM | GI50 (SW-620 colon): 2.99 µM | TGI (SW-620 colon): > 100 µM | GI50 (HOP-62 NSCLC): 3.68 µM | TGI (HOP-62 NSCLC): 15.1 µM | GI50 (SK-MEL-5 melanoma): 1.93 µM | TGI (SK-MEL-5 melanoma): 4.34 µM | GI50 (UACC-62 melanoma): 2.02 µM | TGI (UACC-62 melanoma): 5.02 µM | GI50 (SF-295 CNS): 2.52 µM | TGI (SF-295 CNS): > 100 µM | GI50 (OVCAR-4 ovarian): 2.82 µM | TGI (OVCAR-4 ovarian): 60.7 µM | GI50 (NCI-H522 lung): 1.9 µM | TGI (NCI-H522 lung): 7.01 µM | GI50 (HL-60(TB) leukemia): 2.5 µM | TGI (HL-60(TB) leukemia): 6.58 µM | GI50 (UO-31 renal): 1.51 µM | TGI (UO-31 renal): 6.33 µM | GI50 (SNB-75 CNS): 1.8 µM | TGI (SNB-75 CNS): 8.11 µM | GI50 (UACC-257 melanoma): 3.5 µM | TGI (UACC-257 melanoma): 12.5 µM | GI50 (OVCAR-3 ovarian): 2.32 µM | TGI (OVCAR-3 ovarian): 8.85 µM | GI50 (HCC-2998 colon): 3.12 µM | TGI (HCC-2998 colon): 46.7 µM | GI50 (ACHN renal): 2.75 µM | TGI (ACHN renal): 58.5 µM | GI50 (MCF7 breast): 2.86 µM | TGI (MCF7 breast): 9.72 µM | GI50 (A549 NSCLC): 2.84 µM | TGI (A549 NSCLC): > 100 µM | GI50 (SNB-19 CNS): 4 µM | TGI (SNB-19 CNS): 27.3 µM | GI50 (SK-MEL-28 melanoma): 2.22 µM | TGI (SK-MEL-28 melanoma): 6.18 µM | GI50 (T-47D breast): 4.1 µM | TGI (T-47D breast): 83.3 µM | GI50 (NCI-H23 lung): 2.78 µM | TGI (NCI-H23 lung): > 100 µM | GI50 (CAKI-1 renal): 2.51 µM | TGI (CAKI-1 renal): > 100 µM | GI50 (CCRF-CEM leukemia): 2.28 µM | TGI (CCRF-CEM leukemia): > 100 µM | GI50 (IGROV1 ovarian): 3.45 µM | TGI (IGROV1 ovarian): > 100 µM | GI50 (RPMI-8226 leukemia): 1.23 µM | TGI (RPMI-8226 leukemia): 3.58 µM | GI50 (SK-MEL-2 melanoma): 1.93 µM | TGI (SK-MEL-2 melanoma): 4.38 µM | GI50 (DU-145 prostate): 4.25 µM | TGI (DU-145 prostate): > 100 µM | GI50 (SR leukemia): 2.54 µM | TGI (SR leukemia): 6.56 µM | GI50 (COLO 205 colon): 2.06 µM | TGI (COLO 205 colon): 4.17 µM | GI50 (SF-268 CNS): 3.71 µM | TGI (SF-268 CNS): 85.8 µM | GI50 (SN12C renal): 3.13 µM | TGI (SN12C renal): 16.6 µM | GI50 (U251 CNS): 1.85 µM | TGI (U251 CNS): 5.48 µM | GI50 (HCT-116 colon): 1.53 µM | TGI (HCT-116 colon): 3.52 µM | GI50 (MALME-3M melanoma): 2.11 µM | TGI (MALME-3M melanoma): 7.88 µM | GI50 (SF-539 CNS): 1.87 µM | TGI (SF-539 CNS): 5.37 µM | GI50 (K-562 leukemia): 2.77 µM | TGI (K-562 leukemia): > 100 µM | GI50 (A498 renal): 1.31 µM | TGI (A498 renal): 5.32 µM | GI50 (HOP-92 NSCLC): 1.06 µM | TGI (HOP-92 NSCLC): 4.35 µM | GI50 (HT29 colon): 2.75 µM | TGI (HT29 colon): > 100 µM | GI50 (PC-3 prostate): 1.73 µM | TGI (PC-3 prostate): > 100 µM | GI50 (EKVX NSCLC): 3.22 µM | TGI (EKVX NSCLC): > 100 µM | GI50 (NCI-H226 lung): 4.1 µM | TGI (NCI-H226 lung): 34.2 µM | GI50 (M14 melanoma): 1.91 µM | TGI (M14 melanoma): 4.4 µM | GI50 (KM12 colon): 2.1 µM | TGI (KM12 colon): 7.73 µM

Cc1cc(C(C)(C)CC(C)(C)C)ccc1OCCOCC[N+](C)(C)Cc1ccccc1
GI50 (MDA-MB-231 breast): 1.33 µM | TGI (MDA-MB-231 breast): 2.75 µM | GI50 (NCI/ADR-RES ovarian): 15.3 µM | TGI (NCI/ADR-RES ovarian): 51 µM | GI50 (HS 578T breast): 1.86 µM | TGI (HS 578T breast): 5.16 µM | GI50 (OVCAR-5 ovarian): 1.71 µM | TGI (OVCAR-5 ovarian): 3.45 µM | GI50 (HCT-15 colon): 9.8 µM | TGI (HCT-15 colon): 44 µM | GI50 (HOP-62 NSCLC): 1.44 µM | TGI (HOP-62 NSCLC): 2.84 µM | GI50 (UACC-62 melanoma): 0.967 µM | TGI (UACC-62 melanoma): 2.21 µM | GI50 (HL-60(TB) leukemia): 0.436 µM | TGI (HL-60(TB) leukemia): 1.62 µM | GI50 (UO-31 renal): 2.25 µM | TGI (UO-31 renal): 6.65 µM | GI50 (ACHN renal): 3.19 µM | TGI (ACHN renal): 11.3 µM | GI50 (T-47D breast): 0.388 µM | TGI (T-47D breast): 1.81 µM | GI50 (CAKI-1 renal): 10.4 µM | TGI (CAKI-1 renal): 39 µM | GI50 (SK-OV-3 ovarian): 1.44 µM | TGI (SK-OV-3 ovarian): 2.78 µM | GI50 (DU-145 prostate): 1.66 µM | TGI (DU-145 prostate): 3.13 µM | GI50 (COLO 205 colon): 1.25 µM | TGI (COLO 205 colon): 2.64 µM | GI50 (HOP-92 NSCLC): 1.03 µM | TGI (HOP-92 NSCLC): 2.46 µM | GI50 (EKVX NSCLC): 1.55 µM | TGI (EKVX NSCLC): 4.07 µM
